Results on 59 molecules are retold here after patent US7772271B2 (priority 2004, dated 2010).

As to `Cc1nccnc1Oc1ccc2c(c1)c(C#N)c(-c1ccc(NC(=O)O[C@H](C)C3CC3)cc1)n2C1CCC1` [Compound 3254], the melting point lay within 214 to 215 °C.
The molecule `C[C@@H](OC(=O)Nc1ccc(-c2c(C#N)c3cc(Oc4nccnc4Cl)ccc3n2C2CCC2)cc1)C1CC1` [Compound 3255] came in with a melting point of 209 to 211 °C.
The value for `C[C@@H](OC(=O)Nc1ccc(-c2c(C#N)c3cc(Oc4ncccc4C#N)ccc3n2C2CCC2)cc1)C1CC1` [Compound 3256] was 217 to 218 °C; that for `Cc1cccc(Oc2ccc3c(c2)c(C#N)c(-c2ccc(NC(=O)O[C@H](C)C4CC4)cc2)n3C2CCC2)n1` [Compound 3257] was 205 to 208 °C.
On to `C[C@@H](OC(=O)Nc1ccc(-c2c(C#N)c3ccc(-c4cccc(N5CCCC5)n4)cc3n2C2CCC2)cc1)C1CC1` [Compound 3258], for which the melting point is 250 to 252 °C.
In the case of `C[C@@H](OC(=O)Nc1ccc(-c2c(C#N)c3ccc(-c4cc(N(C)C)ccn4)cc3n2C2CCC2)cc1)C1CC1` [Compound 3259] it was 203 to 208 °C; in that of `C[C@@H](OC(=O)Nc1ccc(-c2c(C#N)c3ccc(Oc4nccnc4C#N)cc3n2C2CC2)cc1)C1CC1` [Compound 3262], 223 °C (dec.); in that of `C[C@@H](OC(=O)Nc1ccc(-c2c(C#N)c3ccc(Oc4ncccc4C#N)cc3n2C2CC2)cc1)C1CC1` [Compound 3263], 183 to 185 °C.
Turning to `C[C@@H](OC(=O)Nc1ccc(-c2c(C#N)c3ccc(OCCN4CCCC4=O)cc3n2C2CCC2)cc1)C1CC1` [Compound 3266], the melting point was 159 to 162 °C.
In the case of `N#Cc1c(-c2ccc(NC(=O)OC3CCS(=O)(=O)CC3)cc2)n(C2CCC2)c2cc(Oc3ncccn3)ccc12` [Compound 3267] it was 181 to 212 °C; in that of `Cc1csc(Nc2ccc(-c3c(C#N)c4ccc(Oc5ncccn5)cc4n3C3CC3)cc2)n1` [Compound 3268], 223 to 225 °C.
The value for `N#Cc1c(-c2ccc(NC(=O)OC3CCS(=O)(=O)CC3)cc2)n(C2CC2)c2cc(Oc3ncccn3)ccc12` [Compound 3269] was 240 to 246 °C; that for `Cc1csc(Nc2ccc(-c3c(C#N)c4ccc(Oc5ncccc5F)cc4n3C3CC3)cc2)n1` [Compound 3270] was 193 to 195 °C.
The value for `C[C@@H](OC(=O)Nc1ccc(-c2c(C#N)c3ccc(OCCN4C(=O)CCC4=O)cc3n2C2CCC2)cc1)C1CC1` [Compound 3271] was 80 to 83 °C.
As for `C[C@@H](OC(=O)Nc1ccc(-c2c(C#N)c3ccc(OCCN4C(=O)CN(C)C4=O)cc3n2C2CCC2)cc1)C1CC1` [Compound 3272], the melting point lay within 79 to 81 °C.
In turn, `CCCS(=O)(=O)Nc1ccc(-c2c(C#N)c3ccc(Oc4ncccc4C#N)cc3n2C2CCC2)c(C)c1` [Compound 3273] came in with a melting point of 227 to 230 °C.
The value for `CCCS(=O)(=O)Nc1ccc(-c2c(C#N)c3ccc(Oc4nccnc4C#N)cc3n2C2CCC2)c(C)c1` [Compound 3274] was 222 to 225 °C; that for `C[C@H](NS(=O)(=O)Nc1ccc(-c2c(C#N)c3ccc(Oc4ncccc4C#N)cc3n2C2CCC2)cc1)C1CC1` [Compound 3275] was 130 °C (dec.); that for `C[C@H](NS(=O)(=O)Nc1ccc(-c2c(C#N)c3ccc(Oc4nccnc4C#N)cc3n2C2CCC2)cc1)C1CC1` [Compound 3276] was 209 to 212 °C.
`CC(C)OC(=O)Nc1ccc(-c2c(C#N)c3ccc(-n4ccccc4=O)cc3n2C2CCC2)cc1` [Compound 3277] registered a melting point of 267 to 268.5 °C.
The value for `CC(C)OC(=O)Nc1ccc(-c2cc3ccc(Oc4nccnc4C#N)cc3n2CC2CC2)cc1` [Compound 3282] was 181 to 182 °C.
The value for `C[C@@H](OC(=O)Nc1ccc(-c2cc3ccc(Oc4nccnc4C#N)cc3n2CC2CC2)cc1)C1CC1` [Compound 3283] was 145 to 147 °C.
The value for `C[C@@H](OC(=O)Nc1ccc(-c2cc3ccc(Oc4nccnc4C#N)cc3n2CC2CC2)cc1)C(F)(F)F` [Compound 3284] was 99 to 101 °C; that for `Cc1cc(Nc2ccc(-c3c(C#N)c4ccc(Oc5nccnc5C#N)cc4n3C3CCC3)cc2)n(C)n1` [Compound 3286] was 233 to 235 °C; that for `Cc1ccnc(Oc2ccc3c(C#N)c(-c4ccc(Nc5cc(C)nn5C)cc4)n(C4CCC4)c3c2)n1` [Compound 3287] was 166 to 168 °C.
The molecule `CCCS(=O)(=O)Nc1ccc(-c2c(C#N)c3ccc(Oc4nccnc4C#N)cc3n2C2CCC2)cc1C` [Compound 3288] gave a melting point of 215 to 217 °C.
In the case of `Cc1cc(-c2c(C#N)c3ccc(Oc4nccnc4C#N)cc3n2C2CCC2)ccc1NS(=O)(=O)CC(C)C` [Compound 3289] it was 177 to 178 °C.
`CCCS(=O)(=O)Nc1ccc(-c2c(C#N)c3ccc(Oc4ncccc4C#N)cc3n2C2CCC2)cc1C` [Compound 3290] came in with a melting point of 176 to 180 °C.
In turn, `N#Cc1c(-c2ccc(NCC(F)F)cc2)n(C2CCC2)c2ccc(OCC(F)F)cc12` [Compound 3292] gave a melting point of 159 to 161 °C.
With `N#Cc1nccnc1Oc1ccc2c(C#N)c(-c3ccc(NS(=O)(=O)C4CCC4)cc3)n(CC3CC3)c2c1` [Compound 3295], the melting point is 236 to 238 °C.
`CCCS(=O)(=O)Nc1ccc(-c2c(C#N)c3ccc(OCCCN4C(=O)CCC4=O)cc3n2C2CCC2)cc1` [Compound 3296] gave a melting point of 215 to 216 °C.
In the case of `CCCS(=O)(=O)Nc1ccc(-c2c(C#N)c3ccc(OCCCN4C(=O)CN(C)C4=O)cc3n2C2CCC2)cc1` [Compound 3299] it was 178 to 179 °C; in that of `CN(C)/C=N/c1ccc(-c2c(C#N)c3ccc(Oc4ncccn4)cc3n2C2CCC2)cc1Cl` [Compound 3300], 215 to 216 °C.
The value for `CCCS(=O)(=O)Nc1ccc(-c2c(C#N)c3ccc(Oc4cnccc4C#N)cc3n2CC2CC2)c(C)c1` [Compound 3303] was 138 to 142 °C; that for `CCCS(=O)(=O)Nc1ccc(-c2c(C#N)c3ccc(Oc4ncccc4C#N)cc3n2C2CC2)c(C)c1` [Compound 3304] was 222 to 226 °C; that for `CCCS(=O)(=O)Nc1ccc(-c2c(C#N)c3ccc(Oc4nccnc4C#N)cc3n2C2CC2)c(C)c1` [Compound 3305] was 225 to 228 °C.
In the case of `CCCS(=O)(=O)Nc1ccc(-c2c(C#N)c3ccc(Oc4ncccc4C#N)cc3n2CC2CC2)c(Cl)c1` [Compound 3306] it was 218 to 220 °C; in that of `CCCS(=O)(=O)Nc1ccc(-c2c(C#N)c3ccc(Oc4nccnc4C#N)cc3n2CC2CC2)c(Cl)c1` [Compound 3307], 243 to 246 °C.
Regarding `CCCS(=O)(=O)Nc1ccc(-c2c(C#N)c3ccc(Oc4ncccc4C(=O)OCC)cc3n2C2CCC2)cc1` [Compound 3308], the melting point lay within 138 to 142 °C.
On to `CCCS(=O)(=O)Nc1ccc(-c2c(C#N)c3ccc(Oc4nc(C)ccc4C#N)cc3n2C2CCC2)cc1` [Compound 3309], for which the melting point lay in the range of 219 to 221 °C.
In the case of `CCCS(=O)(=O)Nc1ccc(-c2c(C#N)c3ccc(Oc4ncccc4C(C)=O)cc3n2C2CCC2)cc1` [Compound 3311] it was 191 to 194 °C; in that of `CC(C)Nc1ccc(-c2c(C#N)c3ccc(Oc4ncccn4)cc3n2C2CCC2)cn1` [Compound 3312], 206 to 208 °C.
Take `N#Cc1c(-c2ccc(NC3CC3)nc2)n(C2CCC2)c2cc(Oc3ncccn3)ccc12` [Compound 3313]: the melting point lay within 244 to 246 °C.
In the case of `C[C@H](NS(=O)(=O)Nc1ccc(-c2c(C#N)c3ccc(N4CCOCC4)cc3n2C2CCC2)cc1)C1CC1` [Compound 3314] it was 198 to 199 °C; in that of `C[C@@H](OC(=O)Nc1ccc(-c2c(C#N)c3ccc(-n4ccccc4=O)cc3n2C2CCC2)cc1)C1CC1` [Compound 3315], 237 to 238 °C.
The value for `C[C@@H](OC(=O)Nc1ccc(-c2c(C#N)c3ccc(-n4ccccc4=O)cc3n2C2CCC2)cc1)C(F)(F)F` [Compound 3316] was 244 to 245 °C.
Consider `Cc1noc(C)c1-c1ccc2c(C#N)c(-c3ccc(NC(=O)O[C@H](C)C4CC4)cc3)n(C3CCC3)c2c1` [Compound 3317], for which the melting point was 225 °C (dec.).
As to `C[C@@H](OC(=O)Nc1ccc(-c2c(C#N)c3ccc(N4CCS4(=O)=O)cc3n2C2CCC2)cc1)C1CC1` [Compound 3318], the melting point is 235 °C (dec.).
`C[C@@H](OC(=O)Nc1ccc(-c2c(C#N)c3ccc(Oc4ncccn4)cc3n2C2CCC2)cn1)C(F)(F)F` [Compound 3322] showed a melting point of 227 to 229 °C.
The molecule `CC(C)NC(=O)Nc1ccc(-c2c(C#N)c3ccc(Oc4ncccn4)cc3n2C2CCC2)cc1C#N` [Compound 3325] showed a melting point of 173 to 181 °C.
In turn, `O=S1(=O)CCCN1c1ccc(-c2cc3ccc(Oc4ncccn4)cc3n2CC2CC2)cc1` [Compound 3326] registered a melting point of 98 to 99 °C.
With `CC(C)Nc1ncc(-c2c(C#N)c3ccc(Oc4ncccn4)cc3n2C2CCC2)cn1` [Compound 3327], the melting point was in the range of 213 to 215 °C.
The value for `N#Cc1c(-c2cnc(NC3CC3)nc2)n(C2CCC2)c2cc(Oc3ncccn3)ccc12` [Compound 3328] was 227 to 229 °C; that for `N#Cc1c(-c2cnc(NC3CCC3)nc2)n(C2CCC2)c2cc(Oc3ncccn3)ccc12` [Compound 3329] was 237 to 238 °C; that for `N#Cc1c(-c2cnc(NC3CCCC3)nc2)n(C2CCC2)c2cc(Oc3ncccn3)ccc12` [Compound 3330] was 230 to 231 °C.
The molecule `N#Cc1c(-c2cnc(NC3CCCCC3)nc2)n(C2CCC2)c2cc(Oc3ncccn3)ccc12` [Compound 3331] yielded a melting point of 217 to 218 °C.
The value for `C[C@@H](OC(=O)Nc1ccc(-c2c(C#N)c3ccc(N4CCCC4=O)cc3n2C2CCC2)cc1)C1CC1` [Compound 3332] was 140 °C (dec.).
On to `Cc1cc(NC(=O)O[C@H](C)C2CC2)ccc1-c1c(C#N)c2ccc(Oc3ncccc3C#N)cc2n1C1CCC1` [Compound 3333], for which the melting point lay in the range of 108 to 115 °C.
In the case of `Cc1cc(NC(=O)O[C@H](C)C2CC2)ccc1-c1c(C#N)c2ccc(Oc3nccnc3C#N)cc2n1C1CCC1` [Compound 3334] it was 108 to 116 °C.

Broadly, the melting point is the temperature, or range, at which the solid turns liquid.
